System: Exophiala dermatitidis CA01
Assay: Broth microdilution chequerboard analysis of Lynovex (NM001) in combination with clinical antifungals
Assay type: cell-based
Conditions: for Antifungal MIC100 / Antifungal MIC50: antifungal in isolation; for Antifungal MIC100 / Antifungal MIC100 in Combination: 72 h; for Antifungal MIC100 / Antifungal MIC50 / Antifungal MIC100 in Combination / Antifungal MIC50 in Combination: 35° C.; for FICI: antifungal with Lynovex (NM001), <0.5 Synergy, 0.5-1 Additive, >1 Indifference; for Antifungal MIC100 in Combination / Antifungal MIC50 in Combination: in combination with Lynovex (NM001)
Method: The aim of the experiment was to determine the effect of Lynovex (NM001) on the antifungal drug susceptibility of Exophiala dermatitidis CA01. Microtitre plates were prepared following CLSI recommendations for broth microdilution chequerboard method. These plates contained a serial doubling dilution of Lynovex (NM001) combined with serial doubling dilutions of antifungals drugs; Fluconazole, Itraconazole, Caspofungin and Amphotericin B. […] These were incubated at 35° C. and read at 72 h, 96 h, 120 h and 144 h on the BioTek plate reader. […] Three independent E. dermatitidis CA01 cultures were grown on PDA slope for 6 days at 35° C. • 7. Cultures were removed from incubator. 2 ml sterile 0.15M NaCl added to the overnight culture and cells harvested from the surface of the agar. Cells placed in fresh bijou tube. • 8. The cultures were allowed to rest for up to 10 minutes, allowing any hyphae to settle to the bottom. The top layer of conidia was removed into fresh bijou. Hyphae were discarded. • 9. […] This is continued to F12 where 100 μl is removed and discarded. • f. This dilution series was repeated in rows G-H for the remaining 2 cultures • g. Plate read at OD530 on BioTek • h. […] This preparation step occurs in two parts. First, Lynovex (NM001) and antifungals are serially diluted, down and across microtitre plates, respectively. Equal volumes of Lynovex and antifungal are then combined in a fresh microtitre plate, prior to inoculation. […] Stock solutions of Lynovex and antifungals were prepared at 4× desired concentrations. The plate layout at the end of this protocol is the final concentration in the plate following the combination of Lynovex and antifungals and the addition of the inocula. […] All other wells contain 150 μl sterile dH2O. • 9. Serial doubling dilutions are carried out from A to B whereby 150 μl is removed from A and placed into B and mixed well. Then take 150 μl B and place in C and mix well. This is repeated down to row G where the final 150 μl is discarded. […] The same procedure is repeated for the other 4 antifungals, carrying the dilutions across the plate i.e. […] At the final dilution in column 10, the final 150 μl is discarded. […] Inoculating Plates with E. dermatitidis CA01 • 6. Add 100 μl (total volume 200 μl) of the prepared E. dermatitidis CA01 culture to the all wells on the plate except wells H12. […] H12 will contain 100 μl water and 100 μl 2×RPMI-1640 alone, constituting an uninoculated control. • 8. The plate is read in the BioTek at OD530. • 9. Plates are then placed in a plastic box containing a Petri dish of water, sealed and incubated at 35° C. The presence of the water in the dish or on the tissue provides and environment of relatively high humidity. • 10. OD530 is then read at 72 h, 96 h, 120 h and 144 h and raw data processed using Microsoft Excel. • 11. Fractional Inhibitory Concentration (FIC) Index values are generated using MIC100 for 72 h data and MIC50 for later time points using the following formula: […]

C[C@@H]1[C@H](O)[C@@H](C)/C=C/C=C/C=C/C=C/C=C/C=C/C=C/[C@H](O[C@@H]2O[C@H](C)[C@@H](O)[C@H](N)[C@@H]2O)C[C@@H]2O[C@](O)(C[C@@H](O)C[C@@H](O)[C@H](O)CC[C@@H](O)C[C@@H](O)CC(=O)O[C@H]1C)C[C@H](O)[C@H]2C(=O)O [Amphotericin B]
Antifungal MIC100 (GEOMEAN): 0.59 mg/L | Antifungal MIC50 (GEOMEAN, 96 h): 0.47 mg/L | Antifungal MIC50 (GEOMEAN, 120 h): 0.47 mg/L | Antifungal MIC50 (GEOMEAN, 144 h): 0.59 mg/L | FICI (GEOMEAN, MIC50, 96 h): 0.63 (2) | FICI (GEOMEAN, MIC50, 120 h): 0.58 (3) | FICI (GEOMEAN, MIC50, 144 h): 0.75 (2) | FICI (GEOMEAN, MIC100, 72 h): 0.53 (1) | Antifungal MIC100 in Combination (GEOMEAN): 0.23 mg/L | Antifungal MIC50 in Combination (GEOMEAN, 96 h): 0.17 mg/L | Antifungal MIC50 in Combination (GEOMEAN, 120 h): 0.19 mg/L | Antifungal MIC50 in Combination (GEOMEAN, 144 h): 0.23 mg/L | Antifungal MIC100 (MEAN): 0.86 mg/L | Antifungal MIC50 (MEAN, 96 h): 0.47 mg/L | Antifungal MIC50 (MEAN, 120 h): 0.47 mg/L | Antifungal MIC50 (MEAN, 144 h): 0.63 mg/L | FICI (MEAN, MIC50, 96 h): 0.64 (2) | FICI (MEAN, MIC50, 120 h): 0.59 (3) | FICI (MEAN, MIC50, 144 h): 0.75 (2) | FICI (MEAN, MIC100, 72 h): 0.53 (1) | Antifungal MIC100 in Combination (MEAN): 0.23 mg/L | Antifungal MIC50 in Combination (MEAN, 96 h): 0.18 mg/L | Antifungal MIC50 in Combination (MEAN, 120 h): 0.20 mg/L | Antifungal MIC50 in Combination (MEAN, 144 h): 0.23 mg/L | Antifungal MIC100 (Range): 0.23 to 1.88 mg/L | Antifungal MIC50 (Range, 96 h): 0.47 mg/L | Antifungal MIC50 (Range, 120 h): 0.5 mg/L | Antifungal MIC50 (Range, 144 h): 0.47 to 0.94 mg/L | Antifungal MIC100 in Combination (Range): 0.23 mg/L | Antifungal MIC50 in Combination (Range, 96 h): 0.12 to 0.23 mg/L | Antifungal MIC50 in Combination (Range, 120 h): 0.12 to 0.23 mg/L | Antifungal MIC50 in Combination (Range, 144 h): 0.23 mg/L
